Measured values published in ChEMBL document CHEMBL1201862, “PubChem BioAssay data set” (2004).
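Five concentrations, 48 hours, 96-well plates. Abbreviation: GI50, concentration required for 50% inhibition of growth.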 Activity calls are given as the source filed them. No stated cut-off is given here; in the data, active = GI50 up to about 1.1 µM and inactive = higher.

Tests used:
Assay in all cases: DTP human tumour cell line panel, 48 h
MOLT-4 = test system: MOLT-4
CCRF-CEM = test system: CCRF-CEM
SF-268 = test system: SF-268
OVCAR-8 = test system: OVCAR-8
TK-10 = test system: TK-10
HL-60 = test system: HL-60
NCI-H226 = test system: NCI-H226
SK-MEL-5 = test system: SK-MEL-5
SK-OV-3 = test system: SK-OV-3
HT-29 = test system: HT-29
SF-295 = test system: SF-295
SNB-19 = test system: SNB-19
UACC-62 = test system: UACC-62
HCT-15 = test system: HCT-15
NCI-H23 = test system: NCI-H23
HOP-62 = test system: HOP-62
UACC-257 = test system: UACC-257
SF-539 = test system: SF-539

## CC(=O)Nc1ccc(C2C(C(=O)Nc3ccccc3)=C(C)NC(C)=C2C(=O)Nc2ccccc2)cc1
MOLT-4
  GI50: > 100 µM (inactive)
CCRF-CEM
  GI50: 35.2 µM (inactive)
SF-268
  GI50: > 100 µM (inactive)
OVCAR-8
  GI50: > 100 µM (inactive)
TK-10
  GI50: > 100 µM (inactive)
HL-60
  GI50: 39.8 µM (inactive)
NCI-H226
  GI50: > 100 µM (inactive)
SK-MEL-5
  GI50: > 100 µM (inactive)
SK-OV-3
  GI50: > 100 µM (inactive)
HT-29
  GI50: > 100 µM (inactive)
SF-295
  GI50: > 100 µM (inactive)
SNB-19
  GI50: > 100 µM (inactive)
UACC-62
  GI50: > 80.5 µM (inactive)
HCT-15
  GI50: > 64.1 µM
NCI-H23
  GI50: > 100 µM (inactive)
HOP-62
  GI50: > 100 µM (inactive)
UACC-257
  GI50: > 100 µM (inactive)
SF-539
  GI50: > 100 µM (inactive)

## O=C1C2C(C(=O)N1c1ccccc1)C1c3ccccc3C2C2C(=O)N(c3ccccc3)C(=O)C21 (configuration not stated)
MOLT-4
  GI50: 20.7 µM (inactive)
CCRF-CEM
  GI50: 4.9 µM (inactive)
SF-268
  GI50: 5.56 µM (inactive)
OVCAR-8
  GI50: 7.08 µM (inactive)
TK-10
  GI50: > 100 µM (inactive)
HL-60
  GI50: 2.9 µM (inactive)
NCI-H226
  GI50: 28.6 µM (inactive)
SK-MEL-5
  GI50: 4.44 µM (inactive)
SK-OV-3
  GI50: 8.22 µM (inactive)
HT-29
  GI50: 26.6 µM (inactive)
SF-295
  GI50: 3.48 µM (inactive)
SNB-19
  GI50: 6.27 µM (inactive)
UACC-62
  GI50: 6.78 µM (inactive)
HCT-15
  GI50: 3.43 µM
NCI-H23
  GI50: 18.5 µM (inactive)
UACC-257
  GI50: > 100 µM (inactive)
SF-539
  GI50: 3.56 µM (inactive)

## O=S1OC2(c3ccccc3-c3ccccc32)c2ccccc21 (configuration not stated)
MOLT-4
  GI50: 52.4 µM (inactive)
CCRF-CEM
  GI50: 72.8 µM (inactive)
OVCAR-8
  GI50: > 100 µM (inactive)
TK-10
  GI50: > 100 µM (inactive)
HL-60
  GI50: > 100 µM (inactive)
NCI-H226
  GI50: > 100 µM (inactive)
SK-MEL-5
  GI50: > 100 µM (inactive)
SK-OV-3
  GI50: > 100 µM (inactive)
HT-29
  GI50: > 100 µM (inactive)
SF-295
  GI50: > 100 µM (inactive)
SNB-19
  GI50: > 100 µM (inactive)
UACC-62
  GI50: > 100 µM (inactive)
HCT-15
  GI50: 86.3 µM
NCI-H23
  GI50: > 100 µM (inactive)
HOP-62
  GI50: 40.6 µM (inactive)
UACC-257
  GI50: > 100 µM (inactive)
SF-539
  GI50: > 100 µM (inactive)

## CCOC(=O)c1csc(CCCCCCc2nc(C(=O)OCC)cs2)n1
MOLT-4
  GI50: > 75 µM (inactive)
CCRF-CEM
  GI50: > 42.3 µM (inactive)
SF-268
  GI50: 34 µM (inactive)
OVCAR-8
  GI50: 31.8 µM (inactive)
TK-10
  GI50: > 92.5 µM (inactive)
HL-60
  GI50: > 48.3 µM (inactive)
NCI-H226
  GI50: 44.9 µM (inactive)
SK-MEL-5
  GI50: 41.6 µM (inactive)
SK-OV-3
  GI50: > 65.5 µM (inactive)
HT-29
  GI50: > 70 µM (inactive)
SF-295
  GI50: 52.2 µM (inactive)
SNB-19
  GI50: > 76.4 µM (inactive)
UACC-62
  GI50: > 83.8 µM (inactive)
HCT-15
  GI50: > 60.5 µM
NCI-H23
  GI50: 43.2 µM (inactive)
HOP-62
  GI50: > 57.1 µM (inactive)
UACC-257
  GI50: 34.8 µM (inactive)
SF-539
  GI50: > 58.3 µM (inactive)

## O=C1/C(=C/c2ccc(O)cc2)NC(=S)N1CN1CCCCC1
MOLT-4
  GI50: 62.7 µM (inactive)
CCRF-CEM
  GI50: 23.8 µM (inactive)
SF-268
  GI50: 89.1 µM (inactive)
OVCAR-8
  GI50: 53.5 µM (inactive)
TK-10
  GI50: 94 µM (inactive)
HL-60
  GI50: 71.6 µM (inactive)
NCI-H226
  GI50: 78.3 µM (inactive)
SK-MEL-5
  GI50: 27.4 µM (inactive)
SK-OV-3
  GI50: > 100 µM (inactive)
HT-29
  GI50: 43 µM (inactive)
SF-295
  GI50: 89.7 µM (inactive)
SNB-19
  GI50: 89.5 µM (inactive)
UACC-62
  GI50: 42.9 µM (inactive)
HCT-15
  GI50: 31.8 µM
NCI-H23
  GI50: > 100 µM (inactive)
HOP-62
  GI50: > 100 µM (inactive)

## Clc1ccc2cccc3c2c1C1OC3c2ccccc21 (configuration not stated)
MOLT-4
  GI50: > 100 µM (inactive)
CCRF-CEM
  GI50: > 100 µM (inactive)
SF-268
  GI50: > 100 µM (inactive)
OVCAR-8
  GI50: > 100 µM (inactive)
TK-10
  GI50: > 100 µM (inactive)
HL-60
  GI50: > 100 µM (inactive)
NCI-H226
  GI50: > 100 µM (inactive)
SK-OV-3
  GI50: > 100 µM (inactive)
HT-29
  GI50: 36.6 µM (inactive)
SF-295
  GI50: > 100 µM (inactive)
SNB-19
  GI50: > 100 µM (inactive)
UACC-62
  GI50: > 100 µM (inactive)
NCI-H23
  GI50: > 100 µM (inactive)
HOP-62
  GI50: > 100 µM (inactive)
UACC-257
  GI50: > 100 µM (inactive)
SF-539
  GI50: > 100 µM (inactive)

## COC(=O)c1oc([N+](=O)[O-])c(-c2ccccc2)c1-c1ccccc1
MOLT-4
  GI50: 33.6 µM (inactive)
CCRF-CEM
  GI50: 67.9 µM (inactive)
SF-268
  GI50: > 100 µM (inactive)
OVCAR-8
  GI50: > 100 µM (inactive)
TK-10
  GI50: > 100 µM (inactive)
NCI-H226
  GI50: > 100 µM (inactive)
SK-MEL-5
  GI50: 48.3 µM (inactive)
SK-OV-3
  GI50: > 100 µM (inactive)
HT-29
  GI50: 88.3 µM (inactive)
SF-295
  GI50: > 100 µM (inactive)
SNB-19
  GI50: > 100 µM (inactive)
UACC-62
  GI50: 67 µM (inactive)
NCI-H23
  GI50: > 100 µM (inactive)
HOP-62
  GI50: > 100 µM (inactive)
UACC-257
  GI50: > 100 µM (inactive)
SF-539
  GI50: > 100 µM (inactive)

## C/C1=C\CC[C@@]2(C)O[C@@H]2[C@H]2OC(=O)C(C)C2C[C@H]1O (some centres not stated)
MOLT-4
  GI50: > 100 µM (inactive)
CCRF-CEM
  GI50: > 100 µM (inactive)
SF-268
  GI50: > 100 µM (inactive)
OVCAR-8
  GI50: > 100 µM (inactive)
TK-10
  GI50: > 100 µM (inactive)
SK-MEL-5
  GI50: 22.5 µM (inactive)
SK-OV-3
  GI50: > 100 µM (inactive)
HT-29
  GI50: > 100 µM (inactive)
SF-295
  GI50: > 100 µM (inactive)
SNB-19
  GI50: > 100 µM (inactive)
UACC-62
  GI50: > 100 µM (inactive)
HCT-15
  GI50: > 100 µM
NCI-H23
  GI50: > 100 µM (inactive)
UACC-257
  GI50: > 100 µM (inactive)
